The text below walks through data of PubChem BioAssay AID256 (DTP/NCI, 2004).

Molecules are shown by their SMILES. Values joined by “and” are separate entries in the source; they are usually repeats but may differ in a detail not shown here. Equal values may be shown once. Toxic doses and inconclusive results are not listed. Non-standard residues stand in square brackets, D forms with d. Residues, ends and D or L forms follow the SMILES beside them. ξ: configuration not given here. *: point of attachment. ξF = NC(Cc1ccccc1)C(=O)O; Cbz = O=C(OCc1ccccc1)*

The subject of this test is CD2F1 mice, L1210 leukemia ip, survival T/C. Briefly: NCI In Vivo Anticancer Drug Screen. Data for tumor model L1210 Leukemia (intraperitoneal) in CD2F1 (CDF1) mice. Conditions: higher = longer survival. In a few lines:
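Each value reflects a quotient of treated over vehicle control outcomes in mice with a transplanted tumor.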

The mark [1] stands for this setting: endpoint: mean survival time, dose: 100.0 mg/kg/injection, schedule: Q04DX003 (ip), vehicle: saline with Tween-80.
[2] abbreviates: endpoint: mean survival time, dose: 200.0 mg/kg/injection, schedule: Q04DX003 (ip), vehicle: saline with Tween-80.
Setting [3] is: endpoint: mean survival time, dose: 400.0 mg/kg/injection, schedule: Q04DX003 (ip), vehicle: saline with Tween-80.
[4] abbreviates: endpoint: mean survival time, dose: 25.0 mg/kg/injection, schedule: Q01DX009 (ip), vehicle: saline with Tween-80.
Setting [5] is: endpoint: mean survival time, dose: 50.0 mg/kg/injection, schedule: Q01DX009 (ip), vehicle: saline with Tween-80.
The mark [6] stands for this setting: endpoint: mean survival time, dose: 100.0 mg/kg/injection, schedule: Q01DX009 (ip), vehicle: saline with Tween-80.
Setting [7] is: endpoint: mean survival time, dose: 12.5 mg/kg/injection, schedule: Q01DX009 (ip), vehicle: saline with Tween-80.

Take `CC(=O)Oc1ccc2c(c1)C(=O)CCC=C2`: the T/C was 103 % of control (endpoint: mean survival time, dose: 12.5 mg/kg/injection, schedule: Q01DX009 (ip), vehicle: other); 106 % of control (endpoint: mean survival time, dose: 25.0 mg/kg/injection, schedule: Q01DX009 (ip), vehicle: other); 108 % of control (endpoint: mean survival time, dose: 50.0 mg/kg/injection, schedule: Q01DX009 (ip), vehicle: other).

For `O=C(O)c1cc(Cl)c(C(=O)O)cc1Cl`, the T/C by setting is: under setting [1], 96 % of control; under setting [2], 102 % of control; under setting [3], 105 % of control.

Take `CC(C)OC(=O)N1C(=O)C2C3CCC(O3)C2C1=O` (centres undefined): the T/C was 105 % of control under setting [4]; 101 % of control (endpoint: mean survival time, dose: 25.0 mg/kg/injection, schedule: Q04DX002 (ip), vehicle: saline with Tween-80); 97 % of control under setting [5]; 101 % of control (endpoint: mean survival time, dose: 50.0 mg/kg/injection, schedule: Q04DX002 (ip), vehicle: saline with Tween-80); 97 % of control under setting [6]; 106 % of control (endpoint: mean survival time, dose: 100.0 mg/kg/injection, schedule: Q04DX002 (ip), vehicle: saline with Tween-80). Also, the T/C (endpoint: mean survival time, dose: 400.0 mg/kg/injection, schedule: Q04DX002 (ip), vehicle: saline with Tween-80) was 97 % of control.

`NC(=O)C(Cc1ccccc1)NC(=O)CNC(=O)CNC(=O)OCc1ccccc1` (stereo not drawn) (Cbz-Gly-Gly-[ξF]-NH2): the T/C by setting is: under setting [1], 97 % of control; under setting [2], 96 % of control; under setting [3], 99 % of control.

In the case of `O=C(NCC(S)c1ccc(Cl)cc1)C(F)(F)F` (centres undefined), the T/C reads like this: (endpoint: mean survival time, dose: 12.5 mg/kg/injection, schedule: Q04DX003 (ip), vehicle: saline with Tween-80) 96 % of control; (endpoint: mean survival time, dose: 25.0 mg/kg/injection, schedule: Q04DX003 (ip), vehicle: saline with Tween-80) 90 % of control; (endpoint: mean survival time, dose: 50.0 mg/kg/injection, schedule: Q04DX003 (ip), vehicle: saline with Tween-80) 96 % of control.

For `CCN(CC)C(=O)c1cccc(COc2ccc(N3C(N)=NC(N)=NC3(C)C)cc2Cl)c1`, the T/C is, setting by setting: (endpoint: mean survival time, dose: 0.2 mg/kg/injection, schedule: Q01DX009 (ip), vehicle: saline) 98 % of control; (endpoint: mean survival time, dose: 0.4 mg/kg/injection, schedule: Q01DX009 (ip), vehicle: saline) 98 % of control; (endpoint: mean survival time, dose: 0.8 mg/kg/injection, schedule: Q01DX009 (ip), vehicle: saline) 100 % of control; (endpoint: mean survival time, dose: 1.56 mg/kg/injection, schedule: Q01DX009 (ip), vehicle: saline) 96 % of control; (endpoint: mean survival time, dose: 3.13 mg/kg/injection, schedule: Q01DX009 (ip), vehicle: saline) 100 % of control; (endpoint: mean survival time, dose: 6.25 mg/kg/injection, schedule: Q01DX009 (ip), vehicle: saline) 96 % of control. Also, for the setting “endpoint: mean survival time, dose: 12.5 mg/kg/injection, schedule: Q01DX009 (ip), vehicle: saline”, the T/C was 100 % of control.

Consider `Cc1c(CNc2ccc(C(=O)NC(CC(=O)O)CC(=O)O)cc2)ccc2nc(N)nc(N)c12`, for which the T/C runs as follows: (endpoint: mean survival time, dose: 0.25 mg/kg/injection, schedule: Q01DX009 (ip), vehicle: saline) 171 % of control; (endpoint: mean survival time, dose: 0.5 mg/kg/injection, schedule: Q01DX009 (ip), vehicle: saline) 118 % of control; (endpoint: mean survival time, dose: 1.0 mg/kg/injection, schedule: Q01DX009 (ip), vehicle: saline) 104 % of control.

Turning to `Cc1nc(-c2ccccc2)c(Cc2ccccc2O)c(=O)[nH]1`, the T/C by setting is: (endpoint: mean survival time, dose: 100.0 mg/kg/injection, schedule: Q01DX001 (ip), vehicle: saline) 97 % of control; (endpoint: mean survival time, dose: 200.0 mg/kg/injection, schedule: Q01DX001 (ip), vehicle: saline) 97 % of control; (endpoint: mean survival time, dose: 400.0 mg/kg/injection, schedule: Q01DX001 (ip), vehicle: saline) 100 % of control.

Take `N#CC1=C(N)CCC1`: the T/C (endpoint: mean survival time, dose: 6.25 mg/kg/injection, schedule: Q01DX009 (ip), vehicle: saline with Tween-80) is 97 % of control; the T/C under setting [7] is 95 % of control; the T/C under setting [4] was 93 % of control; the T/C under setting [1] was 102 % of control; the T/C under setting [3] is 97 % of control.

`O=C(CCCCCCC(=O)ON1C(=O)CCC1=O)ON1C(=O)CCC1=O`: the T/C is 102 % of control (endpoint: median survival time, dose: 25.0 mg/kg/injection, schedule: Q01DX009 (ip), vehicle: saline with Tween-80); 102 % of control (endpoint: median survival time, dose: 50.0 mg/kg/injection, schedule: Q01DX009 (ip), vehicle: saline with Tween-80); 103 % of control (endpoint: median survival time, dose: 100.0 mg/kg/injection, schedule: Q01DX009 (ip), vehicle: saline with Tween-80); 102 % of control (endpoint: median survival time, dose: 200.0 mg/kg/injection, schedule: Q01DX009 (ip), vehicle: saline with Tween-80).

In the case of `CC(=O)C(C)(C)C`, the T/C is, setting by setting: (endpoint: mean survival time, dose: 100.0 mg/kg/injection, schedule: Q04DX002 (ip), vehicle: saline) 96 % of control; (endpoint: mean survival time, dose: 200.0 mg/kg/injection, schedule: Q04DX002 (ip), vehicle: saline) 104 % of control; (endpoint: mean survival time, dose: 400.0 mg/kg/injection, schedule: Q04DX002 (ip), vehicle: saline) 104 % of control.

Consider `N#CC(c1ccccc1)N(c1ccc(NS(=O)(=O)c2ccccc2)cc1)S(=O)(=O)c1ccccc1` (centres undefined), for which the T/C (endpoint: mean survival time, dose: 100.0 mg/kg/injection, schedule: Q01DX001 (ip), vehicle: saline with Tween-80) is 93 % of control; the T/C (endpoint: mean survival time, dose: 200.0 mg/kg/injection, schedule: Q01DX001 (ip), vehicle: saline with Tween-80) is 96 % of control; the T/C (endpoint: mean survival time, dose: 400.0 mg/kg/injection, schedule: Q01DX001 (ip), vehicle: saline with Tween-80) is 89 % of control.

With `CCCCCCCCCCCCCCCCCCNC(=S)NCCCCCCCCCCCCCCCCCC`, the T/C reads like this: under setting [7], 97 % of control; under setting [4], 98 % of control; under setting [5], 90 % of control and 98 % of control; under setting [6], 90 % of control.

As to `O=C(NC(=O)c1ccccc1)NS(=O)(=O)c1ccccc1`, the T/C was 113 % of control under setting [6]; 109 % of control (endpoint: mean survival time, dose: 200.0 mg/kg/injection, schedule: Q01DX009 (ip), vehicle: saline with Tween-80); 98 % of control (endpoint: mean survival time, dose: 400.0 mg/kg/injection, schedule: Q01DX009 (ip), vehicle: saline with Tween-80).
